Results as given in ChEMBL document CHEMBL1212924 (J Med Chem, 2010).
Activity calls are given as the source filed them. The rule behind the calls is not given here.

Experiments:
in vitro = settings: human, liver microsomes
Description: Half life in human liver microsome at 2 mg/mL

[1] = Oral bioavailability in rat at 2 mg/kg; type: ADME, organism-based; settings: in vivo
[2] = Half life in rat at 1 mg/kg, iv and 2 mg/kg, po; type: ADME, organism-based; settings: in vivo
[3] = Cmax in rat at 2 mg/kg, po; type: ADME, organism-based; parameters: dose 2 mg/kg, route oral; settings: in vivo
[4] = Volume of distribution in rat at 1 mg/kg, iv and 2 mg/kg, po; type: ADME, organism-based; settings: in vivo
[5] = Clearance in rat at 1 mg/kg, iv and 2 mg/kg, po; type: ADME, organism-based; settings: in vivo
[6] = target: Rho-associated protein kinase 2 (Homo sapiens, UniProt O75116)
CYP2D6 = CYP2D6 (Homo sapiens, UniProt P10635); assay: Inhibition of CYP2D6 at 10 uM; type: ADME
[7] = target: Serine/threonine-protein kinase MRCK alpha (Homo sapiens, UniProt Q5VT25); assay: Inhibition of MRCKalpha
[8] = target: Rho-associated protein kinase 1 (Homo sapiens, UniProt Q13464)
[9] = target: Mitogen-activated protein kinase 10 (Homo sapiens, UniProt P53779)
CYP3A4 = CYP3A4 (Homo sapiens, UniProt P08684); assay: Inhibition of CYP3A4 at 10 uM; type: ADME
CYP2C9 = CYP2C9 (Homo sapiens, UniProt P11712); assay: Inhibition of CYP2C9 at 10 uM; type: ADME
CYP1A2 = target: T1, CYP1A2 (Homo sapiens, UniProt P05177); assay: Inhibition of CYP1A2 at 10 uM; type: ADME
T1 sequence (P05177 whole entry): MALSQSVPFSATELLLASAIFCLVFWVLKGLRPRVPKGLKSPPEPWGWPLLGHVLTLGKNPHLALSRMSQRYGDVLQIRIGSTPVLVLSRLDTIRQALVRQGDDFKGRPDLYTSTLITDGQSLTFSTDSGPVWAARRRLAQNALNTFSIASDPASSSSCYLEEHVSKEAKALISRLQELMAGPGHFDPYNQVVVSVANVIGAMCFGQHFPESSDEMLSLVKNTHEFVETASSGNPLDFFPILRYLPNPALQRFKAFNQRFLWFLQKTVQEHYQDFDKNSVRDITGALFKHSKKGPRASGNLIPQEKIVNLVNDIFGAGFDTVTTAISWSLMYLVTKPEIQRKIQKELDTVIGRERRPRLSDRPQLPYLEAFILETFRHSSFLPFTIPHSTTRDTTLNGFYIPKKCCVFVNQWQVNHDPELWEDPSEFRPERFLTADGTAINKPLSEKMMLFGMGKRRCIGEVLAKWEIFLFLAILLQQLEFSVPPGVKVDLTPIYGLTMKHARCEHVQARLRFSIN

[10] = Inhibition of p38
Rattus norvegicus = assay: Reduction in intraocular pressure in Brown norway rat at 40 ug administered as drops in eye after 2 hrs; type: functional, organism-based
[11] = target: Serine/threonine-protein kinase 33 (Homo sapiens) (UniProt Q9BYT3); assay: Inhibition of STK33 at 3 uM
[12] = target: Serine/threonine-protein kinase 38 (Homo sapiens) (UniProt Q15208); assay: Inhibition of NDR1 at 3 uM
[13] = target: Dual specificity protein kinase CLK4 (Homo sapiens) (UniProt Q9HAZ1); assay: Inhibition of CLK4 at 3 uM
[14] = target: Serine/threonine-protein kinase MRCK beta (Homo sapiens) (UniProt Q9Y5S2); assay: Inhibition of MRCKbeta at 3 uM
[15] = target: T2, Serine/threonine-protein kinase LATS2 (Homo sapiens) (UniProt Q9NRM7); assay: Inhibition of Lats2 at 3 uM
T2 sequence (whole entry): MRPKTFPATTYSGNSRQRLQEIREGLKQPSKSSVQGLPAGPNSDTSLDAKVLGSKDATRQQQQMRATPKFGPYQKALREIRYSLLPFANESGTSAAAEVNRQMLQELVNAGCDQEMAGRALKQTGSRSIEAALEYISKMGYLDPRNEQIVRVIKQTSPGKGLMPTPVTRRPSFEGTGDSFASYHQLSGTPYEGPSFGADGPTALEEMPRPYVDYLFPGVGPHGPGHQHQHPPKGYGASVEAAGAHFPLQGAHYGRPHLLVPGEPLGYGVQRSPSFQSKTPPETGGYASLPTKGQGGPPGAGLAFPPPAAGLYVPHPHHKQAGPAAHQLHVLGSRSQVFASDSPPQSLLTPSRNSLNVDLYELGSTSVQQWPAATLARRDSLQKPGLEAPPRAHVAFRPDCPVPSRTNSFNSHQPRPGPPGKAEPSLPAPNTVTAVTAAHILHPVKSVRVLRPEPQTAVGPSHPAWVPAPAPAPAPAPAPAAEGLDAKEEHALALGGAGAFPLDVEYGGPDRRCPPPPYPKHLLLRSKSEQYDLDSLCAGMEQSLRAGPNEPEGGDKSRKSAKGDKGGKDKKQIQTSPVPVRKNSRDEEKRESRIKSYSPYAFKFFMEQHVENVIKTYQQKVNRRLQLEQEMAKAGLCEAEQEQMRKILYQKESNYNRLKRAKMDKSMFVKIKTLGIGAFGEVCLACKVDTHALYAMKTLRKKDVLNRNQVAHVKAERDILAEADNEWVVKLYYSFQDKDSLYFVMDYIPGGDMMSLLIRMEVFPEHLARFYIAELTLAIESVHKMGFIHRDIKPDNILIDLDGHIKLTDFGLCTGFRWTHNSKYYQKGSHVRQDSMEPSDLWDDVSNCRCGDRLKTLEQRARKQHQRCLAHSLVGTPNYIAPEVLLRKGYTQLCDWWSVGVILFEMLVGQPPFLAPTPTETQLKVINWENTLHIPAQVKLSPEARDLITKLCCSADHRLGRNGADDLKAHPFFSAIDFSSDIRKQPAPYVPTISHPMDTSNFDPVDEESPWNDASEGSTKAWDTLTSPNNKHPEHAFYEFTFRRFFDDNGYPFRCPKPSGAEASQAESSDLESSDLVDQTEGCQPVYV

[16] = target: Dual specificity protein kinase CLK1 (Homo sapiens) (UniProt P49759); assay: Inhibition of CLK1 at 3 uM
[17] = target: Phosphatidylinositol 4,5-bisphosphate 3-kinase catalytic subunit beta isoform (Homo sapiens) (UniProt P42338); assay: Inhibition of PI3Kbeta at 3 uM

CYP3A4, sequence (P08684 whole entry): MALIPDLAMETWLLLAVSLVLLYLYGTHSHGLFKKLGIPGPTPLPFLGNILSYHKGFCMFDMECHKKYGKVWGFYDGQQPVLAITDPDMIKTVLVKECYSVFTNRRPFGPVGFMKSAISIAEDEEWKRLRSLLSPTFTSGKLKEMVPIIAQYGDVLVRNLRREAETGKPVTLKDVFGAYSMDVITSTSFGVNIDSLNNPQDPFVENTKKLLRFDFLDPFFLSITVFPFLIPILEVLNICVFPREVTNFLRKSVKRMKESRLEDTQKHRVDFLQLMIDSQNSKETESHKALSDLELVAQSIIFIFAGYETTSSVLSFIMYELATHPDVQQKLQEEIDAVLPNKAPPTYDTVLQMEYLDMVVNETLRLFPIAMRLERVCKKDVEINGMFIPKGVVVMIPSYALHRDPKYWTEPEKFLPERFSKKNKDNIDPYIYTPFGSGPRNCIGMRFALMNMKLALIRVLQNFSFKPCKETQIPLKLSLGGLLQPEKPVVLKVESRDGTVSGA
Mitogen-activated protein kinase 10, sequence (P53779 whole entry): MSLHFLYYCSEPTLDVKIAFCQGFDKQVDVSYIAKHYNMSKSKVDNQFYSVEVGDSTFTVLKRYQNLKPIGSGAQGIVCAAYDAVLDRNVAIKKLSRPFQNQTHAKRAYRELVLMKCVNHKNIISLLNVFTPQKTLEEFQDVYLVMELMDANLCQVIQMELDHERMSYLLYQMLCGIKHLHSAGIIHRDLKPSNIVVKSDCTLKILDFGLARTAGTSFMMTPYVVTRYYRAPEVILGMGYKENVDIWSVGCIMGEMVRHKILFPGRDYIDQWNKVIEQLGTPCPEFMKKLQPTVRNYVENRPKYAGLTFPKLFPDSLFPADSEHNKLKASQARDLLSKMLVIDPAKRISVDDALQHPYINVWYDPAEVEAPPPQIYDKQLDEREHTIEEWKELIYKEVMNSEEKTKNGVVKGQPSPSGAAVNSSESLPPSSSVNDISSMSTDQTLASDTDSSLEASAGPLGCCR
CYP2C9, sequence (P11712 whole entry): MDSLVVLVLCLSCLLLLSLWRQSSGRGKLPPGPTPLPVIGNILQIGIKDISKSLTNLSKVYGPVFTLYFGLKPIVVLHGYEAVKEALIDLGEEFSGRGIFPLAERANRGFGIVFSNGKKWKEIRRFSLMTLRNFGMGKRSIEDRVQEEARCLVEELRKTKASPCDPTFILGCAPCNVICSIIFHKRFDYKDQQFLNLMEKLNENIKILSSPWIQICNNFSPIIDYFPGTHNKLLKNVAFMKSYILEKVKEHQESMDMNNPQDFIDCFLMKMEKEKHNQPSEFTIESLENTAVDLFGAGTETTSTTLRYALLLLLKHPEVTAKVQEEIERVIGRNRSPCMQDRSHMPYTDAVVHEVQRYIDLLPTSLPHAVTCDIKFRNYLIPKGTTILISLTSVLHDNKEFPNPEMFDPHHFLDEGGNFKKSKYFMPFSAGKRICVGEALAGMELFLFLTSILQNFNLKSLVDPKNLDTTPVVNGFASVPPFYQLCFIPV
Serine/threonine-protein kinase MRCK alpha, sequence (Q5VT25 whole entry): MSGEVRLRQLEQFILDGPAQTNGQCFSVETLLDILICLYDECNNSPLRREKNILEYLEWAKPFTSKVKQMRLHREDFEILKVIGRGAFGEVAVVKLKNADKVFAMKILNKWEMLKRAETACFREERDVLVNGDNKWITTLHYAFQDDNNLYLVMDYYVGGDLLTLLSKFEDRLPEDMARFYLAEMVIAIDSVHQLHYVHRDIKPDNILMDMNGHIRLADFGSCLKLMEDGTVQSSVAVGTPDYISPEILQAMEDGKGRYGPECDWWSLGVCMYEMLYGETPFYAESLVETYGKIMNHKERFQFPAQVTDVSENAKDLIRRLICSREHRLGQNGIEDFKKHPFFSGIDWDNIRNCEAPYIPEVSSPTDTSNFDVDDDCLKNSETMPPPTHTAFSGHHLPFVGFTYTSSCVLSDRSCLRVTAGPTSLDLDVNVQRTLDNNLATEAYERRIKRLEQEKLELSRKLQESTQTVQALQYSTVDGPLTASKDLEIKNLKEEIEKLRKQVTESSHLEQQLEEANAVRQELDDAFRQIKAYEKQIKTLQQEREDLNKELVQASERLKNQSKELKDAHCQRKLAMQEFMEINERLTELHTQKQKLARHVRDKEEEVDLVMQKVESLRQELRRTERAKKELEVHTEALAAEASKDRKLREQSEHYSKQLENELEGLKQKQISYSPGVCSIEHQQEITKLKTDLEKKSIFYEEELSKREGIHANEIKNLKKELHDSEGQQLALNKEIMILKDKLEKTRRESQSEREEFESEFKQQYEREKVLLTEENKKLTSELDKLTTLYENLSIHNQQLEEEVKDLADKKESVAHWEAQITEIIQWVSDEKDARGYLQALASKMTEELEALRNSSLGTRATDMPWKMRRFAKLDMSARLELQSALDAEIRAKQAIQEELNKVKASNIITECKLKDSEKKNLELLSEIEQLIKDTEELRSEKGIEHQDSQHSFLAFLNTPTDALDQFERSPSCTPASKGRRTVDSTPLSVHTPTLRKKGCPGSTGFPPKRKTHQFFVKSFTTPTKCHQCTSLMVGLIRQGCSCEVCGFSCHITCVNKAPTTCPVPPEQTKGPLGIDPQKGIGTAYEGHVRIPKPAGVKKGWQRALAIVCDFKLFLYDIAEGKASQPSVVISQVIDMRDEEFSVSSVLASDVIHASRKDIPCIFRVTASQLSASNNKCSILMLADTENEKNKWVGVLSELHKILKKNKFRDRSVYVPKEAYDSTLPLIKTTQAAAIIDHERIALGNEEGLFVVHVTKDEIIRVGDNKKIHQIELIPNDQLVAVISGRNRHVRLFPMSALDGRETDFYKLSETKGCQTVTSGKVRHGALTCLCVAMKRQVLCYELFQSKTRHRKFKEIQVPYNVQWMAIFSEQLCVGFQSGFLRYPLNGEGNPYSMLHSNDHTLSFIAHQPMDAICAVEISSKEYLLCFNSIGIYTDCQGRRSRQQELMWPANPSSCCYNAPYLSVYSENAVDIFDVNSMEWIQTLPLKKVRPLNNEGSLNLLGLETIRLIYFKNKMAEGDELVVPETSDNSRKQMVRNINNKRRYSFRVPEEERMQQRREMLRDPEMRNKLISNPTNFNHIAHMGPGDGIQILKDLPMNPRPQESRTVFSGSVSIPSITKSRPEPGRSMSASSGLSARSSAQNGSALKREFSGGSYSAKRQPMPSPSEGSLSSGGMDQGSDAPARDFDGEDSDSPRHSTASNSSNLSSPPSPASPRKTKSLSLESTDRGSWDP
Rho-associated protein kinase 1, sequence (Q13464 whole entry): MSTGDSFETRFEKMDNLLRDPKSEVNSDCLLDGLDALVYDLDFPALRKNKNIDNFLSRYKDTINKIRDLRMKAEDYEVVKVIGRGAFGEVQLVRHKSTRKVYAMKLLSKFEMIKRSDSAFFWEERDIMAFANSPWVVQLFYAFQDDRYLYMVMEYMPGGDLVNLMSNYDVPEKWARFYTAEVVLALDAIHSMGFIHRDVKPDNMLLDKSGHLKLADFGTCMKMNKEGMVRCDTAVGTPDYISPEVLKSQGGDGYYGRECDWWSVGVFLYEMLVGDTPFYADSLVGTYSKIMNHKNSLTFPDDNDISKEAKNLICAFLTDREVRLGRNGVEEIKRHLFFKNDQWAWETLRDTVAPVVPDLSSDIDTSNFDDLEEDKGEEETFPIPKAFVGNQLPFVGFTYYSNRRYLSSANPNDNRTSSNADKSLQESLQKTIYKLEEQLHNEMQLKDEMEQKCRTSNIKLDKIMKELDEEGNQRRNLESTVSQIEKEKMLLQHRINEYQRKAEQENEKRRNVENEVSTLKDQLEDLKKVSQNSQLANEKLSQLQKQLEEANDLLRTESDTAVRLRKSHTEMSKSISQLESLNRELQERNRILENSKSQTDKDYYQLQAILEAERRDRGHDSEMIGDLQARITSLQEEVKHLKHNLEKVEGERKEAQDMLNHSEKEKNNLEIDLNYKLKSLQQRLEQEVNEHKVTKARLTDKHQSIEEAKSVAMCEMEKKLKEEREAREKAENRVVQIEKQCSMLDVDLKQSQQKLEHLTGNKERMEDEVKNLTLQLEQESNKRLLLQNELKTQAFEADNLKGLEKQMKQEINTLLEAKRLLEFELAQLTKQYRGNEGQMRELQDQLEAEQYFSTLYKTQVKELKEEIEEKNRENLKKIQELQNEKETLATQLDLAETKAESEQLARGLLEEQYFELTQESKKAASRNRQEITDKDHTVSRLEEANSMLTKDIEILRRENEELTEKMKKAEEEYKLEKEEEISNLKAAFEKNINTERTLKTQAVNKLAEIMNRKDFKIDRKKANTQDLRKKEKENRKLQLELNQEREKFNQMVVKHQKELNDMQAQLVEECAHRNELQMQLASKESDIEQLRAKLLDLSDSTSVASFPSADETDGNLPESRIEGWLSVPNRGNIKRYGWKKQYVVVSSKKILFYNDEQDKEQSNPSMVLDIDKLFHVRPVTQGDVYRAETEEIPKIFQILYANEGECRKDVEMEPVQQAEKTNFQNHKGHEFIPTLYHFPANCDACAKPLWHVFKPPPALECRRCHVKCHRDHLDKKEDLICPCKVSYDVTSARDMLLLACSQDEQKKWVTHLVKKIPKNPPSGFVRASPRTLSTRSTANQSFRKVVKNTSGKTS
CYP2D6, sequence (P10635 whole entry): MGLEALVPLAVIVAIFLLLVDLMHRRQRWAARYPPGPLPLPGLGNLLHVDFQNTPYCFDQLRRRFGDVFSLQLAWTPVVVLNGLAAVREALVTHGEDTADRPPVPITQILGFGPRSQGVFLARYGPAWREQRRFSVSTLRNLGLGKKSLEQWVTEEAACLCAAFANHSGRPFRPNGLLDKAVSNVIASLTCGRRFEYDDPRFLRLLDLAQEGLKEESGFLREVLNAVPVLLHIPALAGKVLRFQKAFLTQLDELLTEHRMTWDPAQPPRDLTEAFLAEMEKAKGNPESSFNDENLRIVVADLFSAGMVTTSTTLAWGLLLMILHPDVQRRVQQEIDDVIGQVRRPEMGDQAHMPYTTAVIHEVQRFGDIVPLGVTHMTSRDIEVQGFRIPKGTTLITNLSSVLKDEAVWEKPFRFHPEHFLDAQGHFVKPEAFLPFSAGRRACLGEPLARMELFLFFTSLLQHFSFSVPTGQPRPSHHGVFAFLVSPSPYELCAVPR

SMILES: COc1ccc2c(c1)C[C@H](C(=O)Nc1cc(F)c(-c3cn[nH]c3)cc1OCCN(C)C)NC2
- half-life (in vitro): 0.85 h
- bioavailability [1]: 0.3%
- half-life [2]: 1.5 h
- Cmax [3]: 32 nM
- Vd [4]: 0.49 L/kg
- clearance [5]: 4.6 mL/min/kg

SMILES: COc1ccc2c(c1)C[C@H](C(=O)Nc1ccc(-c3c[nH]nc3C)cc1SCCN(C)C)NC2
- half-life (in vitro): 0.183 h

SMILES: COc1ccc2c(c1)C[C@H](C(=O)Nc1ccc(-c3cn[nH]c3)cc1)NC2
- IC50 [6]: 334 nM

SMILES: COc1cccc2c1CNC(C(=O)Nc1ccc(-c3cn[nH]c3)cc1OCCN(C)C)C2 (racemic)
- IC50 [6]: 261 nM

SMILES: COc1ccc2c(c1)C[C@H](C(=O)Nc1ccc(-c3cn[nH]c3)cc1OCCN(C)C)NC2
- inhibition at 10 µM (CYP2D6): 40%
- IC50 [7]: 5350 nM
- bioavailability [1]: 28%
- IC50 [8]: 48 nM
- half-life [2]: 5.5 h
- Cmax [3]: 242 nM
- IC50 [9]: > 20000 nM
- Vd [4]: 7.2 L/kg
- inhibition at 10 µM (CYP3A4): -3%
- inhibition at 10 µM (CYP2C9): 31%
- inhibition at 10 µM (CYP1A2): 21%
- IC50 [10]: > 20000 nM
- clearance [5]: 17 mL/min/kg

SMILES: COc1ccc2c(c1)C[C@H](C(=O)Nc1ccc(-c3cn[nH]c3)cc1OCCN1CCCC1)NC2
- half-life (in vitro): 1.05 h

SMILES: CCOc1ccc2c(c1)CC(C(=O)Nc1ccc(-c3cn[nH]c3)cc1OCCN(C)C)NC2 (racemic)
- IC50 [6]: 156 nM

SMILES: COc1ccc2c(c1)C[C@H](C(=O)Nc1ccc(-c3cn[nH]c3)cc1OCC1CCN(C)CC1)NC2
- Activity (Rattus norvegicus): Active
- half-life (in vitro): 1.02 h
- inhibition at 10 µM (CYP2D6): 52%
- inhibition [11]: 66%
- IC50 [7]: 669 nM
- inhibition [12]: 72%
- bioavailability [1]: 0%
- IC50 [8]: 10 nM
- inhibition [13]: 91%
- inhibition [14]: 77%
- half-life [2]: 3.4 h
- inhibition [15]: 75%
- inhibition [16]: 86%
- IC50 [9]: > 20000 nM
- Vd [4]: 9.5 L/kg
- inhibition at 10 µM (CYP3A4): 15%
- inhibition at 10 µM (CYP2C9): 45%
- inhibition at 10 µM (CYP1A2): 3%
- IC50 [10]: > 20000 nM
- inhibition [17]: 74%
- clearance [5]: 41 mL/min/kg

SMILES: CCN1Cc2ccc(OC)cc2C[C@@H]1C(=O)Nc1cc(F)c(-c2cn[nH]c2)cc1OCCN(C)C
- half-life (in vitro): 0.183 h
- bioavailability [1]: 0%
- half-life [2]: 1.7 h
- Vd [4]: 17 L/kg
- clearance [5]: 130 mL/min/kg

SMILES: COc1ccc2c(c1)C[C@H](C(=O)Nc1ccc(-c3cn[nH]c3)c(F)c1OCCN(C)C)NC2
- half-life (in vitro): 1.2 h

SMILES: COc1ccc2c(c1)C[C@H](C(=O)Nc1ccc(-c3cn[nH]c3)cc1OC1CCN(C)CC1)NC2
- half-life (in vitro): 1.73 h

SMILES: CN(C)CCOc1cc(-c2cn[nH]c2)ccc1NC(=O)[C@H]1Cc2ccccc2CN1
- half-life (in vitro): 1.63 h

SMILES: COc1ccc2c(c1)C[C@H](C(=O)Nc1c(F)cc(-c3cn[nH]c3)cc1OCCN(C)C)NC2
- half-life (in vitro): 1.87 h

SMILES: NC(Cc1ccc(Cl)cc1)C(=O)Nc1ccc(-c2cn[nH]c2)cc1 (configuration not stated)
- half-life (in vitro): 1.12 h

SMILES: COc1ccc2c(c1)C[C@H](C(=O)Nc1ccc(-c3cn[nH]c3)cc1SCCC(=O)N(C)C)NC2
- half-life (in vitro): 0.05 h

SMILES: CCN1Cc2ccccc2C[C@@H]1C(=O)Nc1cc(F)c(-c2cn[nH]c2)cc1OCCN(C)C
- half-life (in vitro): 0.0167 h
- inhibition at 10 µM (CYP2D6): 52%
- IC50 [7]: 810 nM
- IC50 [8]: 16 nM
- IC50 [9]: > 20000 nM
- inhibition at 10 µM (CYP3A4): 39%
- inhibition at 10 µM (CYP2C9): 70%
- inhibition at 10 µM (CYP1A2): -24%
- IC50 [10]: > 20000 nM

SMILES: CN(C)CCOc1cc(-c2cn[nH]c2)ccc1NC(=O)[C@H]1Cc2cc(Cl)ccc2CN1
- half-life (in vitro): 2.02 h

SMILES: COc1ccc2c(c1)C[C@H](C(=O)Nc1ccc(-c3cn[nH]c3)cc1SCCN(C)C)NC2
- half-life (in vitro): 0.367 h

SMILES: CN(C)CCOc1cc(-c2cn[nH]c2)c(F)cc1NC(=O)[C@H]1Cc2ccccc2CN1C(=O)CN(C)C
- half-life (in vitro): 0.233 h
- IC50 [6]: 775 nM

SMILES: N[C@H](Cc1cccc(F)c1)C(=O)Nc1ccc(-c2cn[nH]c2)cc1
- half-life (in vitro): 1.12 h

SMILES: CN(C)CCOc1cc(-c2cn[nH]c2)ccc1NC(=O)C1NCCc2ccccc21 (configuration not stated)
- half-life (in vitro): 0.233 h

SMILES: NC(C(=O)Nc1ccc(-c2cn[nH]c2)cc1)c1ccc(Cl)cc1 (configuration not stated)
- half-life (in vitro): 1.4 h

SMILES: COc1ccc2c(c1)C[C@@H](C(=O)Nc1ccc(-c3cn[nH]c3)cc1OCCN(C)C)NC2
- half-life (in vitro): 1.68 h

SMILES: CN(C)CCOc1cc(-c2cn[nH]c2)c(F)cc1NC(=O)[C@H]1Cc2ccccc2CN1CC1CC1
- half-life (in vitro): 0.05 h
- bioavailability [1]: 0%
- half-life [2]: 2.3 h
- Vd [4]: 7 L/kg
- clearance [5]: 42 mL/min/kg

SMILES: CN(C)CCOc1cc(-c2cn[nH]c2)ccc1NC(=O)[C@@H]1Cc2cc(Cl)ccc2CN1
- half-life (in vitro): 0.283 h

SMILES: CN(C)CCOc1cc(-c2cn[nH]c2)c(F)cc1NC(=O)[C@H]1Cc2ccccc2CN1
- half-life (in vitro): 0.75 h
- inhibition at 10 µM (CYP2D6): 77%
- IC50 [7]: 333 nM
- bioavailability [1]: 16%
- IC50 [8]: 33 nM
- half-life [2]: 2.7 h
- Cmax [3]: 18 nM
- IC50 [9]: > 20000 nM
- Vd [4]: 24 L/kg
- inhibition at 10 µM (CYP3A4): 18%
- inhibition at 10 µM (CYP2C9): 62%
- inhibition at 10 µM (CYP1A2): 31%
- IC50 [10]: > 20000 nM
- clearance [5]: 106 mL/min/kg

SMILES: CN(C)CCOc1cc(-c2cn[nH]c2)c(F)cc1NC(=O)[C@H]1Cc2ccccc2CN1C
- half-life (in vitro): 0.267 h

SMILES: COc1ccc2c(c1)CN[C@@H](C(=O)Nc1ccc(-c3cn[nH]c3)cc1OCCN(C)C)C2
- IC50 [6]: 850 nM

SMILES: CN(C)CCOc1cc(-c2cn[nH]c2)ccc1NC(=O)[C@@H]1Cc2ccccc2CN1
- half-life (in vitro): 1.63 h

SMILES: COCCOc1cc(-c2cn[nH]c2)ccc1NC(=O)[C@H]1Cc2cc(OC)ccc2CN1
- half-life (in vitro): 0.717 h
